{
  "source": "patent US20100041089A1",
  "about": "“IMPROVED METHOD FOR DETECTING CHEMICAL […]” (priority 2006, published 2010)",
  "tested_on": "promoter of yeast gene YKL071w",
  "test": "Dissolved oxygen measurement with oxygen electrode using yeast transformed with YKL071w promoter linked to oxidase (pyridoxamine phosphate substrate)",
  "type": "cell-based, Saccharomyces cerevisiae W303",
  "details": "sample solutions A, B, C with 0.0053, 0.053, 0.53 ppm versus standard solution S; FIG. 4",
  "procedure": "Primers for PCR to amplify the polynucleotide comprising the promoter of yeast gene YKL071w were prepared. Primers were designed using a primer design software, Oligo4.0-S, Sequencher I Mackintosh version. The base sequence of the upper primer was:\nFor PCR, yeast chromosome (Saccharomyces cerevisiae S288C, Cat.40802, Research Genetics, Inc.) was used as template, and the commercially available kit (KOD DNA Polymerase; Code KOD-101, Toyobo) was used as reagents. […]\nThe yeast in a steady state is diluted 500 times with the SD medium, and it is shake cultured at 25° C. for 15 hours. After confirming the logarithmic growth phase at which absorbance at 600 nm is within 0.2 to 0.5, different concentrations of TPN is loaded. […]\nBy comparing a temporal change in a measured current value for the sample solution A, B or C and a temporal change in a measured current value for the standard solution S, an amount of pyridoxamine phosphate oxidase produced by stimulation of the chemical substance (TPN) in respective solutions for measurement may be determined and, thereby, existence or a quantity of the chemical substance may be detected.",
  "data": [
    {"smiles": "N#Cc1c(Cl)c(Cl)c(Cl)c(C#N)c1Cl", "note": "[(9), 2,4,5,6-Tetrachloro-1,3-benzenedicarbonitrile]", "values": [
      {"measurement": "Temporal change in current value for dissolved oxygen measurement", "value": "as the concentration of the chemical substance (TPN) becomes larger, a decreasing rate of a current value at an initial stage becomes larger and a steady state value after reaching a plateau becomes lower"}
    ]}
  ]
}
